Data published in US9365522B2, “Pyrazole amide derivative” (AMGEN INC., priority 2015, dated 2016).

Target: T1, human RORγ-LBD (Homo sapiens, UniProt P51449)
T1 construct: made in house; host or cells: E. coli (BL-21)
T1 sequence (P51449 262-518): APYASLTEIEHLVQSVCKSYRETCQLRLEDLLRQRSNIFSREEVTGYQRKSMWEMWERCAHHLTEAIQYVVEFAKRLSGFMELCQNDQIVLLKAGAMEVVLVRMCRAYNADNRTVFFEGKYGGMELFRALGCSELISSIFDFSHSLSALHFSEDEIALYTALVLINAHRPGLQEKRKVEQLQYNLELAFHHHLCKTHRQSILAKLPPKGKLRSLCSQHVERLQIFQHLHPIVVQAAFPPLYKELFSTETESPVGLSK
Experiment: ROR gamma coactivator peptide recruitment Alphascreen assay (RORγ-LBD binding to GRIP1 coactivator peptide)
Format: biochemical
Conditions: 5 nM human RORγ-LBD, 30 nM 7-β-hydroxycholesterol, 50 nM biotinylated GRIP1 coactivator peptide, overnight incubation at room temperature; read-out: result (pIC50, RORγ coactivator peptide recruitment Alphascreen assay) (converted)
Method in brief: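 His/Flag-tagged human RORγ-LBD (aa 262-518, E. coli-expressed, 5 nM) with agonist 7-β-hydroxycholesterol (30 nM) and biotinylated GRIP1 LXXLL peptide (50 nM) in HEPES pH 7.4 buffer, 2.5% DMSO. Compound 1-in-2 dilutions; Alphascreen bead signal read after overnight incubation at room temperature; pIC50 calculated.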

| SMILES | IC50 [nM] |
| --- | --- |
| C[C@@H]1C[C@@H](n2ncc(C(=O)N3CC4(CC=CC4)C[C@@H]3Cc3c(Cl)cncc3Cl)c2C(F)(F)F)CC[C@@H]1C(=O)O [Example 809, (1S,2R,4S)-4-(4-(((3R)-3-((3,5-dichloro-4-pyridinyl)methyl)-2-azaspiro[4.4]non-7-en-2-yl)carbonyl)-5-(trifluoromethyl)-1H-pyrazol-1-yl)-2-methylcyclohexanecarboxylic acid] | 17.8 |
| C[C@@H]1C[C@@H](n2ncc(C(=O)N(CC(=O)c3c(Cl)cncc3Cl)CC3(F)CCCC3)c2C(F)(F)F)CC[C@@H]1C(=O)O [Example 810, (1S,2R,4S)-4-(4-((2-(3,5-dichloro-4-pyridinyl)-2-oxoethyl)((1-fluorocyclopentyl)methyl)carbamoyl)-5-(trifluoromethyl)-1H-pyrazol-1-yl)-2-methylcyclohexanecarboxylic acid] | 3.09 |
| C[C@@H]1C[C@@H](n2ncc(C(=O)N(CC(=O)c3c(Cl)cccc3Cl)CC3(C(F)(F)F)CC3)c2C(F)(F)F)CC[C@@H]1C(=O)O [Example 811, (1S,2R,4S)-4-(4-((2-(2,6-dichlorophenyl)-2-oxoethyl)((1-(trifluoromethyl)cyclopropyl)methyl)carbamoyl)-5-(trifluoromethyl)-1H-pyrazol-1-yl)-2-methylcyclohexanecarboxylic acid] | 1.78 |
| C[C@@H]1C[C@H](n2ncc(C(=O)N(CC(=O)c3c(Cl)cncc3Cl)CC(C)(C)C)c2C(F)(F)F)CC[C@H]1C(=O)O [Example 812, (1R,2R,4R)-4-(4-((2-(3,5-dichloro-4-pyridinyl)-2-oxoethyl)(2,2-dimethylpropyl)carbamoyl)-5-(trifluoromethyl)-1H-pyrazol-1-yl)-2-methylcyclohexanecarboxylic acid] | 9.33 |
| C[C@]1(CN(CC(=O)c2c(Cl)ccc(F)c2Cl)C(=O)c2cnn([C@H]3CC[C@](C)(C(=O)O)CC3)c2C(F)(F)F)CCCO1 [Example 814, trans-4-(4-((2-(2,6-dichloro-3-fluorophenyl)-2-oxoethyl)(((2R)-2-methyltetrahydro-2-furanyl)methyl)carbamoyl)-5-(trifluoromethyl)-1H-pyrazol-1-yl)-1-methylcyclohexanecarboxylic acid] | 9.12 |
| C[C@@]1(CN(CC(=O)c2c(Cl)ccc(F)c2Cl)C(=O)c2cnn([C@H]3CC[C@](C)(C(=O)O)CC3)c2C(F)(F)F)CCCO1 [Example 815, trans-4-(4-((2-(2,6-dichloro-3-fluorophenyl)-2-oxoethyl)(((2S)-2-methyltetrahydro-2-furanyl)methyl)carbamoyl)-5-(trifluoromethyl)-1H-pyrazol-1-yl)-1-methylcyclohexanecarboxylic acid] | 12.9 |
| C[C@@H]1C[C@@H](n2ncc(C(=O)N(CC(=O)c3c(Cl)cncc3Cl)[C@H]3CCC34CCC4)c2C(F)(F)F)CC[C@@H]1C(=O)O [Example 816, (1S,2R,4S)-4-(4-((2-(3,5-dichloro-4-pyridinyl)-2-oxoethyl)((1S)-spiro[3.3]hept-1-yl)carbamoyl)-5-(trifluoromethyl)-1H-pyrazol-1-yl)-2-methylcyclohexanecarboxylic acid] | 4.47 |
| C[C@@H]1C[C@@H](n2ncc(C(=O)N(CC(=O)c3c(Cl)cncc3Cl)[C@@H]3CCC34CCC4)c2C(F)(F)F)CC[C@@H]1C(=O)O [Example 817, (1S,2R,4S)-4-(4-((2-(3,5-dichloro-4-pyridinyl)-2-oxoethyl)((1R)-spiro[3.3]hept-1-yl)carbamoyl)-5-(trifluoromethyl)-1H-pyrazol-1-yl)-2-methylcyclohexanecarboxylic acid] | 64.6 |
| C[C@]1(C(=O)O)CC[C@H](n2ncc(C(=O)N(CC(=O)c3c(Cl)cncc3Cl)C[C@@H]3CC3(F)F)c2C(F)(F)F)CC1 [Example 818, trans-4-(4-((2-(3,5-dichloro-4-pyridinyl)-2-oxoethyl)(((1S)-2,2-difluorocyclopropyl)methyl)carbamoyl)-5-(trifluoromethyl)-1H-pyrazol-1-yl)-1-methylcyclohexanecarboxylic acid] | 7.24 |
| C[C@]1(C(=O)O)CC[C@H](n2ncc(C(=O)N(CC(=O)c3c(Cl)cncc3Cl)C[C@H]3CC3(F)F)c2C(F)(F)F)CC1 [Example 819, trans-4-(4-((2-(3,5-dichloro-4-pyridinyl)-2-oxoethyl)(((1R)-2,2-difluorocyclopropyl)methyl)carbamoyl)-5-(trifluoromethyl)-1H-pyrazol-1-yl)-1-methylcyclohexanecarboxylic acid] | 50.1 |
| C[C@@H]1C[C@@H](n2ncc(C(=O)N(CC(=O)c3c(Cl)cncc3Cl)C[C@H]3CCCO3)c2C(F)(F)F)CC[C@@H]1C(=O)O [Example 820, (1S,2R,4S)-4-(4-((2-(3,5-dichloro-4-pyridinyl)-2-oxoethyl)((2R)-tetrahydro-2-furanylmethyl)carbamoyl)-5-(trifluoromethyl)-1H-pyrazol-1-yl)-2-methylcyclohexanecarboxylic acid] | 100 |
| CC1(C)CC[C@H](CN(CC(=O)c2c(Cl)cccc2Cl)C(=O)c2cnn([C@H]3CC[C@](C)(C(=O)O)CC3)c2C(F)(F)F)O1 [Example 821, trans-4-(4-((2-(2,6-dichlorophenyl)-2-oxoethyl)(((2R)-5,5-dimethyltetrahydro-2-furanyl)methyl)carbamoyl)-5-(trifluoromethyl)-1H-pyrazol-1-yl)-1-methylcyclohexanecarboxylic acid] | 9.77 |
| CC1(CN(CC(=O)c2c(Cl)cncc2Cl)C(=O)c2cnn([C@@H]3CC[C@@H](C(=O)O)C(C)(C)C3)c2C(F)(F)F)CCC1 [Example 824, (1R,4R)-4-(4-((2-(3,5-dichloro-4-pyridinyl)-2-oxoethyl)((1-methylcyclobutyl)methyl)carbamoyl)-5-(trifluoromethyl)-1H-pyrazol-1-yl)-2,2-dimethylcyclohexanecarboxylic acid] | 28.8 |
| CC1(CN(CC(=O)c2c(Cl)cncc2Cl)C(=O)c2cnn([C@H]3CC[C@H](C(=O)O)C(C)(C)C3)c2C(F)(F)F)CCC1 [Example 825, (1S,4S)-4-(4-((2-(3,5-dichloro-4-pyridinyl)-2-oxoethyl)((1-methylcyclobutyl)methyl)carbamoyl)-5-(trifluoromethyl)-1H-pyrazol-1-yl)-2,2-dimethylcyclohexanecarboxylic acid] | 1.38 |

Now from value to compound:

| IC50 [nM] | SMILES |
| --- | --- |
| 18.6 | C[C@@H]1C[C@@H](n2ncc(C(=O)N(CC(=O)c3c(Cl)cncc3Cl)C[C@H]3CCC(C)(C)O3)c2C(F)(F)F)CC[C@@H]1C(=O)O [Example 826, (1S,2R,4S)-4-(4-((2-(3,5-dichloro-4-pyridinyl)-2-oxoethyl)(((2R)-5,5-dimethyltetrahydro-2-furanyl)methyl)carbamoyl)-5-(trifluoromethyl)-1H-pyrazol-1-yl)-2-methylcyclohexanecarboxylic acid] |
| 9.55 | C[C@@H]1C[C@@H](n2ncc(C(=O)N(CC(=O)c3c(Cl)cncc3Cl)CC(C)(C)F)c2C(F)(F)F)CC[C@@H]1C(=O)O [Example 829, (1S,2R,4S)-4-(4-((2-(3,5-dichloro-4-pyridinyl)-2-oxoethyl)(2-fluoro-2-methylpropyl)carbamoyl)-5-(trifluoromethyl)-1H-pyrazol-1-yl)-2-methylcyclohexanecarboxylic acid] |
| 2.69 | C[C@@H]1C[C@@H](n2ncc(C(=O)N(CC(=O)c3c(Cl)cncc3Cl)CC3(C(F)(F)F)CC3)c2C(F)(F)F)CC[C@@H]1C(=O)O [Example 830, (1S,2R,4S)-4-(4-((2-(3,5-dichloro-4-pyridinyl)-2-oxoethyl)((1-(trifluoromethyl)cyclopropyl)methyl)carbamoyl)-5-(trifluoromethyl)-1H-pyrazol-1-yl)-2-methylcyclohexanecarboxylic acid] |
| 2.63 | C[C@@H]1C[C@@H](n2ncc(C(=O)N(CC(=O)c3c(Cl)cccc3Cl)CC(C)(C)F)c2C(F)(F)F)CC[C@@H]1C(=O)O [Example 831, (1S,2R,4S)-4-(4-((2-(2,6-dichlorophenyl)-2-oxoethyl)(2-fluoro-2-methylpropyl)carbamoyl)-5-(trifluoromethyl)-1H-pyrazol-1-yl)-2-methylcyclohexanecarboxylic acid] |
| 3.89 | CC(C)(F)CN(CC(=O)c1c(Cl)cccc1Cl)C(=O)c1cnn([C@H]2CC[C@](C)(C(=O)O)CC2)c1C(F)(F)F [Example 832, trans-4-(4-((2-(2,6-dichlorophenyl)-2-oxoethyl)(2-fluoro-2-methylpropyl)carbamoyl)-5-(trifluoromethyl)-1H-pyrazol-1-yl)-1-methylcyclohexanecarboxylic acid] |
| 5.89 | Cc1cc(Cl)c(C(=O)CN(CC2CCC(C)(C)CC2)C(=O)c2cnn([C@H]3CC[C@@H](C(=O)O)CC3)c2C(F)(F)F)c(Cl)n1 [Example 833, cis-4-(4-((2-(2,4-dichloro-6-methyl-3-pyridinyl)-2-oxoethyl)((4,4-dimethylcyclohexyl)methyl)carbamoyl)-5-(trifluoromethyl)-1H-pyrazol-1-yl)cyclohexanecarboxylic acid] |
| 10 | Cc1cc(Cl)c(C(=O)CN(CC2CCCCC2)C(=O)c2cnn([C@H]3CC[C@@H](C(=O)O)CC3)c2C(F)(F)F)c(Cl)n1 [Example 834, cis-4-(4-((cyclohexylmethyl)(2-(2,4-dichloro-6-methyl-3-pyridinyl)-2-oxoethyl)carbamoyl)-5-(trifluoromethyl)-1H-pyrazol-1-yl)cyclohexanecarboxylic acid] |
